According to patent publication US11166920B2, “Microfluidics device for fabrication of large, uniform, injectable hydrogel microparticles for cell encapsulation” (Auburn University, priority 2017, dated 2021):
Entries after “also recorded” stand apart in the source; their conditions may differ.

System: microsphere CMs
Assay: Multielectrode array: drug response and exogenous pacing
Format: cell-based, human
Details: day 20 microsphere CMs; isoproterenol 1 μM, then propranolol 1 μM
Description: Day 20 and 50 dissociated microsphere CMs were seeded onto a fibronectin coated S2 type MEA200/30-Ti-gr (Multichannel Systems) and cultured for at least 24 h. Adhering microsphere CMs were perfused with Tyrode's solution, composed of 1.8 mM CaCl2), 5 mM glucose, 5 mM HEPES, 1 mM MgCl2, 5.4 mM KCl, 135 mM NaCl, and 0.33 mM NaH2PO4 at pH 7.4 and 37° C. Once stabilized, field potentials of spontaneous contractions were recorded at a sampling frequency of 10 kHz. Drug response of day 20 microsphere CMs was tested by adding the β-adrenergic agonist isoproterenol (1 μM) and antagonist propranolol (1 μM). Day 50 microsphere CMs were exogenously paced from 0.5-6.0 Hz.

Row | Structure (SMILES) | Effect on contraction rate
1 | CC(C)NCC(O)c1ccc(O)c(O)c1 (centres unmarked) [isoproterenol] | increases the frequency of contraction; also recorded: increasing the contraction rate
2 | CC(C)NCC(O)COc1cccc2ccccc12 (centres unmarked) [propranolol] | slowed down the rate of contraction; also recorded: reversed the initial increase in contraction rate
